Measured values reported in ChEMBL document CHEMBL3259567, “Novel 2,4-Diarylaminopyrimidine Analogues (DAAPalogues) Showing Potent c-Met/ALK Multikinase Inhibitory Activities” (ACS Med Chem Lett, 2014).
The source made the active and inactive calls. The rule behind the calls is not given here.

What was measured:
[1] = biological target: Hepatocyte growth factor receptor (Homo sapiens, UniProt P08581)
[2] = biological target: ALK tyrosine kinase receptor (Homo sapiens, UniProt Q9UM73)
[3] = biological target: Proto-oncogene tyrosine-protein kinase receptor Ret (Homo sapiens) (UniProt P07949); experiment: Inhibition of purified recombinant RET (unknown origin) at 1 uM after 60 mins by ELISA
Chain of Proto-oncogene tyrosine-protein kinase receptor Ret (Homo sapiens) (P07949 whole entry): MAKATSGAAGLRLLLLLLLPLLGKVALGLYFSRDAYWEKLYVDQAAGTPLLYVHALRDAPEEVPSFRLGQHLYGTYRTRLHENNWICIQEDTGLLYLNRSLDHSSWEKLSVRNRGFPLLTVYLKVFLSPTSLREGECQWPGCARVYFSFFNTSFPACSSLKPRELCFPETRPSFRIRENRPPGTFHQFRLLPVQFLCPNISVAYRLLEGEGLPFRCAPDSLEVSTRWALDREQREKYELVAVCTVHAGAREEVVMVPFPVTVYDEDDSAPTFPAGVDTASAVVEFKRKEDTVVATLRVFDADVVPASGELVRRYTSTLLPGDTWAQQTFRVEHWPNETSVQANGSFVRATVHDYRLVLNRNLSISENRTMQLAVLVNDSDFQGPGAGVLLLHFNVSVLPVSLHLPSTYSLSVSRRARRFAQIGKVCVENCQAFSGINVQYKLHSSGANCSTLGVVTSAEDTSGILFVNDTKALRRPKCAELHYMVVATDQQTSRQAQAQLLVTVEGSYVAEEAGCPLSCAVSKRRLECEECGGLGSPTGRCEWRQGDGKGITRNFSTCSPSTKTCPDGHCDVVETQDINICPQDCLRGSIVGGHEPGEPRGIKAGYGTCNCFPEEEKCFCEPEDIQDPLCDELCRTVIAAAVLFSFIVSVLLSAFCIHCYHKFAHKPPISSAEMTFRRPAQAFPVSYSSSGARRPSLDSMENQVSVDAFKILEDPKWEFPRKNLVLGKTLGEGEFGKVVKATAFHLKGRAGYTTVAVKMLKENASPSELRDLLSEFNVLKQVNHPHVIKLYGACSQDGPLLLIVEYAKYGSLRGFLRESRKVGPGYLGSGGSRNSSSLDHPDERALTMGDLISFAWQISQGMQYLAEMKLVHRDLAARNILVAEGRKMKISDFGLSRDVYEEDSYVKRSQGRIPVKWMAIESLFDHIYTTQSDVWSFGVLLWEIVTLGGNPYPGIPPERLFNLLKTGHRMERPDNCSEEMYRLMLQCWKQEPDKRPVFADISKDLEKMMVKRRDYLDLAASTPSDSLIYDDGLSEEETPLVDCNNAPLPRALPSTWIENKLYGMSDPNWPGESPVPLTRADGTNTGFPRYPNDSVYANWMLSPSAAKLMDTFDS

[4] = biological target: Macrophage-stimulating protein receptor (Homo sapiens) (UniProt Q04912); experiment: Inhibition of purified recombinant RON (unknown origin) at 1 uM after 60 mins by ELISA
[5] = biological target: Proto-oncogene tyrosine-protein kinase Src (Homo sapiens) (UniProt P12931); experiment: Inhibition of purified recombinant c-SRC (unknown origin) at 1 uM after 60 mins by ELISA
[6] = biological target: Fibroblast growth factor receptor 1 (Homo sapiens) (UniProt P11362); experiment: Inhibition of purified recombinant FGFR1 (unknown origin) at 1 uM after 60 mins by ELISA
Chain of Fibroblast growth factor receptor 1 (Homo sapiens) (P11362 22-822 limits assumed): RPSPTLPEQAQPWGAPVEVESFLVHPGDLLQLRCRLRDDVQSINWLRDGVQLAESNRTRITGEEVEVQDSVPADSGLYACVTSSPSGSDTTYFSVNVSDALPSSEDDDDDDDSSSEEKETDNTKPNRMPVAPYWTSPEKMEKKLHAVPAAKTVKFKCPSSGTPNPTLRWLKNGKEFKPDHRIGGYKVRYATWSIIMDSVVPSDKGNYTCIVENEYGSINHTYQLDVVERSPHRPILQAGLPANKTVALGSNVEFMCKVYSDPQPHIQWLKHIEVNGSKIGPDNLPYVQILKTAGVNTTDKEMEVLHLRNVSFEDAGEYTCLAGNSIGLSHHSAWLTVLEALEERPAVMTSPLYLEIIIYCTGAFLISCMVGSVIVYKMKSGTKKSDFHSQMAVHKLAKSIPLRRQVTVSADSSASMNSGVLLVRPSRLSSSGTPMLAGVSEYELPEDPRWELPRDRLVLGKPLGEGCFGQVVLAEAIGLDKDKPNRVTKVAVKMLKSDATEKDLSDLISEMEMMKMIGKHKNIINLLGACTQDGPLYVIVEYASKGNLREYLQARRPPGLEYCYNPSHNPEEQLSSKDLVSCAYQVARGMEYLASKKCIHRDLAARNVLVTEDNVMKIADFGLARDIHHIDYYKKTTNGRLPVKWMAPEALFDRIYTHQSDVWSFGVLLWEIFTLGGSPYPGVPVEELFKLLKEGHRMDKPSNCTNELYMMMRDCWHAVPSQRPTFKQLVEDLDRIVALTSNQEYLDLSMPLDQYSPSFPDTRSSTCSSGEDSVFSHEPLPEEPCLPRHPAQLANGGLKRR

[7] = Half life in mouse at 10 mg/kg, iv; format: ADME, organism-based; design: dose 10 mg/kg, route intravenous; details: in vivo
[8] = Clearance in mouse at 10 mg/kg, iv; format: ADME, organism-based; design: dose 10 mg/kg, route intravenous; details: in vivo
[9] = AUC (0 to infinity) in mouse at 20 mg/kg, po; format: ADME, organism-based; design: time infinity, dose 20 mg/kg, route oral; details: plasma
[10] = Oral bioavailability in mouse at 20 mg/kg; format: ADME, organism-based; details: in vivo
BaF3 [11] = experiment: Antitumor activity against mouse BAF3 cells expressing EML4-ALK fusion protein allografted in nude mouse assessed as tumor growth inhibition at 0.3 to 1 mg/kg, po qd for 2 weeks relative to vehicle-treated control; format: functional, organism-based
cells [12] = details: Homo sapiens, KARPAS-299, 72 h
Description: Antiproliferative activity against ALK-dependent human KARPAS299 cells after 72 hrs

BaF3 [13] = experiment: Antitumor activity against mouse BAF3 cells expressing EML4-ALK fusion protein allografted in nude mouse assessed as tumor growth inhibition at 1 mg/kg, po qd for 2 weeks relative to vehicle-treated control; format: functional; details: BaF3, 336 h, read-out: TGI
cells [14] = details: Homo sapiens, EBC-1, 72 h
Description: Antiproliferative activity against cMET-amplified human EBC1 cells after 72 hrs

D(1A) dopamine receptor = D(1A) dopamine receptor (Homo sapiens, UniProt P21728); experiment: Antagonist activity at dopamine D1 receptor (unknown origin)
D(1B) dopamine receptor = D(1B) dopamine receptor (Homo sapiens, UniProt P21918); experiment: Antagonist activity at dopamine D5 receptor (unknown origin)

Chain of ALK tyrosine kinase receptor (Q9UM73 whole entry): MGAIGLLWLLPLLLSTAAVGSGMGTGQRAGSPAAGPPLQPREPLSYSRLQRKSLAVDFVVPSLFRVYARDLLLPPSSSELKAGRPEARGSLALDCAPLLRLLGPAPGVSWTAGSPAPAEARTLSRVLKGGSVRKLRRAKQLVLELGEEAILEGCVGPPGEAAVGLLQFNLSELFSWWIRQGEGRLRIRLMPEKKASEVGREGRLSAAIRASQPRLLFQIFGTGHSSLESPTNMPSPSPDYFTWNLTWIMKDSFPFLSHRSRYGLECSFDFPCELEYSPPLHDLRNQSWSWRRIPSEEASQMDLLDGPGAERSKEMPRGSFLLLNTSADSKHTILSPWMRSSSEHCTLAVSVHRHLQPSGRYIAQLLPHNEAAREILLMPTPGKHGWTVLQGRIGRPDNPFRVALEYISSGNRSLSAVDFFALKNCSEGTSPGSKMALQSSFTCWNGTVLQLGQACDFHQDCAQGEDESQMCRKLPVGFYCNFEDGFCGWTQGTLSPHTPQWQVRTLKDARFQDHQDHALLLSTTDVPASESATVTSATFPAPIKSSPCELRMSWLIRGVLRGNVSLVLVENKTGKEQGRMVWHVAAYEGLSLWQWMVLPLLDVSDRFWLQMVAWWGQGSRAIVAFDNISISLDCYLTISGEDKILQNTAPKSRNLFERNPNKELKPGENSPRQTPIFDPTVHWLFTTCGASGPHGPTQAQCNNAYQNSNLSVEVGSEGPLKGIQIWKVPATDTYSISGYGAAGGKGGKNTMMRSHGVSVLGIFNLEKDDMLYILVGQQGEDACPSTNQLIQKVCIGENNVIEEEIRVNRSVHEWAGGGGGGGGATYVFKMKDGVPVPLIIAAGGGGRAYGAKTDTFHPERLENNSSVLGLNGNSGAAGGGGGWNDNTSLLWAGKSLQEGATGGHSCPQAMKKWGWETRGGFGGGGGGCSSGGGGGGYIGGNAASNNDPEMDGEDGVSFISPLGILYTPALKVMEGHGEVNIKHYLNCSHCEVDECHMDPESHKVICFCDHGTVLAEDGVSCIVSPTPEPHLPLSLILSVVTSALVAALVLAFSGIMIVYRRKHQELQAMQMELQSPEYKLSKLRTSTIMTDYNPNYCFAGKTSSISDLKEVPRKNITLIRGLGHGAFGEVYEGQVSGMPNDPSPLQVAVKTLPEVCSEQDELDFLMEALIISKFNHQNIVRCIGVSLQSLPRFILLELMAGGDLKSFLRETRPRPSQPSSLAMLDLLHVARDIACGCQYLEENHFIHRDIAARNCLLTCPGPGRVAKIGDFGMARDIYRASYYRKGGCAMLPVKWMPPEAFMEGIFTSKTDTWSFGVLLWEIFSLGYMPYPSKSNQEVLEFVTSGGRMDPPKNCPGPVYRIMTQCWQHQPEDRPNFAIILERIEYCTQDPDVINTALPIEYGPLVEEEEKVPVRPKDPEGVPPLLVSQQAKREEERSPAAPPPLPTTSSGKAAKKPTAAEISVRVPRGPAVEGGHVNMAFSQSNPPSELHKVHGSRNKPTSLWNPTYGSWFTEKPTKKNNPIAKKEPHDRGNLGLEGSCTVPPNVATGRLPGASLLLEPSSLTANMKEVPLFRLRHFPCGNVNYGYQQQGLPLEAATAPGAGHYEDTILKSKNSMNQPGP
Chain of Hepatocyte growth factor receptor (P08581 whole entry): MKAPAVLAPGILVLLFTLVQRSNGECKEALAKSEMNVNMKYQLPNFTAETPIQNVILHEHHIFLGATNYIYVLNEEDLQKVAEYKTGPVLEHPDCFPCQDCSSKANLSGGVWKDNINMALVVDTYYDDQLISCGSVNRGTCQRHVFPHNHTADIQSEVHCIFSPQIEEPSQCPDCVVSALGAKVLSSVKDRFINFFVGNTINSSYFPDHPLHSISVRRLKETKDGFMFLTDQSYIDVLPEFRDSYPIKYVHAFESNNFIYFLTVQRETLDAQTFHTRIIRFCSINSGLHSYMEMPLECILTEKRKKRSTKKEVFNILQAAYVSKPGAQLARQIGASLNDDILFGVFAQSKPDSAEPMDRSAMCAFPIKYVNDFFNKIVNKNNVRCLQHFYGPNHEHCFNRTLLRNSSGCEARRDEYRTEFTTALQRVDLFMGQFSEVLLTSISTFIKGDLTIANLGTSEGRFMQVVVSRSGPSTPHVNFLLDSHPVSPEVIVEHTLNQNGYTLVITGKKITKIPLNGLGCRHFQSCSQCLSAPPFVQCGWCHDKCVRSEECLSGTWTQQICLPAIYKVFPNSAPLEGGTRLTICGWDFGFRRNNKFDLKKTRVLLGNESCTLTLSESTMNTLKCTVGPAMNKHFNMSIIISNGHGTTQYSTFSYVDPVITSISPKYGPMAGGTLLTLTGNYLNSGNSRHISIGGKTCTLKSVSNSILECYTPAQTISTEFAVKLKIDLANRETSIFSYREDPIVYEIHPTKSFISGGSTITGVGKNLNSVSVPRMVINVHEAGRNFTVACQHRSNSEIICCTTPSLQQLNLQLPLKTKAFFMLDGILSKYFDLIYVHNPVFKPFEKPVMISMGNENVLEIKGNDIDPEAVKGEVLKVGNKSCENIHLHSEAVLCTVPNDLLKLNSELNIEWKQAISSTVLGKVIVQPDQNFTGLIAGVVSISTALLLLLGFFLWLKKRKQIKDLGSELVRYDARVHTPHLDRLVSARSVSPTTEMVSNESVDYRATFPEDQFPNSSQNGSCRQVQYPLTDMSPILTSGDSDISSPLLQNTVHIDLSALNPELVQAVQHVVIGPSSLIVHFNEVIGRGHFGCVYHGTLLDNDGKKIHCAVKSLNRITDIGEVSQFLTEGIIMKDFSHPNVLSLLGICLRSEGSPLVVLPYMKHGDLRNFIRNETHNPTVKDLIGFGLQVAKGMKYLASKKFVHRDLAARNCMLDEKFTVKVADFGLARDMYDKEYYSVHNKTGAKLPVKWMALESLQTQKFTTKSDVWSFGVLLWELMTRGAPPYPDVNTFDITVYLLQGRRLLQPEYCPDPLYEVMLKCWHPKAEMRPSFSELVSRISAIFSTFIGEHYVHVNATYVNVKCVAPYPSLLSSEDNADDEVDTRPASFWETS

CNC(=O)c1ccccc1Nc1nc(Nc2ccc3c(c2)C(C)CN(C)CC3)nc2sccc12 (centres undefined)
IC50 [1]: > 1000 nM | IC50 [2]: > 1000 nM

CNC(=O)c1ccccc1Nc1nc(Nc2ccc3c(c2)C(C)CN(C)CC3)nc2ccccc12 (centres undefined)
IC50 [1]: > 1000 nM | IC50 [2]: > 1000 nM

CNC(=O)c1ccccc1Nc1nc(Nc2ccc3c(c2)C(c2ccccc2)CN(C)CC3)ncc1Cl (racemic)
inhibition [3]: Active | inhibition [4]: Active | inhibition [5]: Active | inhibition [6]: Active | half-life [7]: 132 min | clearance [8]: 33.3 mL/min/kg | AUC(0-inf) [9]: 9070 ng·h/mL | bioavailability [10]: 73% | TGI (BaF3 [11]): inactive | IC50 (cells [12]): 30 nM

CNC(=O)c1ccccc1Nc1nc(Nc2ccc3c(c2)C(C)CN(C)CC3)nc(F)c1Cl (centres undefined)
IC50 [1]: > 1000 nM | IC50 [2]: > 1000 nM

CNC(=O)c1ccccc1Nc1nc(Nc2ccc3c(c2)C(C)CN(C)CC3)ncc1Cl (racemic)
inhibition [3]: Active | inhibition [4]: Active | inhibition [5]: Active | inhibition [6]: Active | half-life [7]: 132 min | clearance [8]: 33.3 mL/min/kg | AUC(0-inf) [9]: 5500 ng·h/mL | bioavailability [10]: 20% | inhibition in vivo at 1 mg/kg (BaF3 [13]): 60.6% | IC50 (cells [14]): 7 nM | IC50 (cells [12]): 14 nM

CNC(=O)c1ccccc1Nc1nc(Nc2ccc3c(c2)C(C)CN(C)CC3)nc(N2CCOCC2)c1Cl (centres undefined)
IC50 [1]: > 1000 nM | IC50 [2]: > 1000 nM

CN1CCc2ccccc2Cc2[nH]c3ccccc3c2CC1
Ki (D(1A) dopamine receptor): < 10 nM | Ki (D(1B) dopamine receptor): < 10 nM

CC1CN(C)CCc2ccc(Nc3ncc(Cl)c(Nc4ccccc4C(=O)N4CCOCC4)n3)cc21 (centres undefined)
IC50 [1]: > 1000 nM | IC50 [2]: > 1000 nM

CNC(=O)c1ccccc1Nc1nc(Nc2ccc3c(c2)C(C)CNCC3)ncc1Cl (centres undefined)
IC50 [1]: 6.4 nM | IC50 [2]: 7.9 nM

CNC(=O)c1ccccc1Nc1nc(Nc2ccc3c(c2)C(C)CN(C)CC3)nc(NC)c1Cl (centres undefined)
IC50 [1]: > 1000 nM | IC50 [2]: > 1000 nM

CNC(=O)c1ccccc1Nc1nc(Nc2ccc3c(c2)C(C)CN(C)CC3)nc2cccnc12 (centres undefined)
IC50 [1]: > 1000 nM | IC50 [2]: > 1000 nM
